The values below are quoted from earlier work in US6372715B1, “Use of erythropoientin and iron preparations for producing pharmaceutical combination preparations for treating rheumatic diseases” (Roche Diagnostics GmbH, priority 1997, dated 2002).

As for `[Fe]` [elementary iron], the oral iron resorption entry (oral) is given as “about 1 mg per day”. Besides, under “oral administration of about 300 mg Fe(III)/day”, the “oral iron resorption under extreme loading” value was “less than 3 mg per day”.
